Measured values as given in US20090018134A1, “Compounds - 945” (AstraZeneca AB, priority 2007, published 2009).

The compounds below were run against T1, mTOR (Homo sapiens, UniProt P42345) (assay: In Vitro mTOR Kinase Assay (Echo), Test (a)(ii)). Settings: read-out: mTOR Kinase Assay (Echo).
T1 construct: FLAG; made in house
Assay type: biochemical
Outline: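 Inhibition of truncated mTOR (1362-2549, FLAG-tagged, purified from stably transfected HEK293 cells) is measured as reduced AlphaScreen signal from a phospho-T389-recognising antibody bound to the biotinylated peptide product. Kinase incubation lasts 2 hours at room temperature. Potency is given as IC50.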

T1 sequence (P42345 1362-2549): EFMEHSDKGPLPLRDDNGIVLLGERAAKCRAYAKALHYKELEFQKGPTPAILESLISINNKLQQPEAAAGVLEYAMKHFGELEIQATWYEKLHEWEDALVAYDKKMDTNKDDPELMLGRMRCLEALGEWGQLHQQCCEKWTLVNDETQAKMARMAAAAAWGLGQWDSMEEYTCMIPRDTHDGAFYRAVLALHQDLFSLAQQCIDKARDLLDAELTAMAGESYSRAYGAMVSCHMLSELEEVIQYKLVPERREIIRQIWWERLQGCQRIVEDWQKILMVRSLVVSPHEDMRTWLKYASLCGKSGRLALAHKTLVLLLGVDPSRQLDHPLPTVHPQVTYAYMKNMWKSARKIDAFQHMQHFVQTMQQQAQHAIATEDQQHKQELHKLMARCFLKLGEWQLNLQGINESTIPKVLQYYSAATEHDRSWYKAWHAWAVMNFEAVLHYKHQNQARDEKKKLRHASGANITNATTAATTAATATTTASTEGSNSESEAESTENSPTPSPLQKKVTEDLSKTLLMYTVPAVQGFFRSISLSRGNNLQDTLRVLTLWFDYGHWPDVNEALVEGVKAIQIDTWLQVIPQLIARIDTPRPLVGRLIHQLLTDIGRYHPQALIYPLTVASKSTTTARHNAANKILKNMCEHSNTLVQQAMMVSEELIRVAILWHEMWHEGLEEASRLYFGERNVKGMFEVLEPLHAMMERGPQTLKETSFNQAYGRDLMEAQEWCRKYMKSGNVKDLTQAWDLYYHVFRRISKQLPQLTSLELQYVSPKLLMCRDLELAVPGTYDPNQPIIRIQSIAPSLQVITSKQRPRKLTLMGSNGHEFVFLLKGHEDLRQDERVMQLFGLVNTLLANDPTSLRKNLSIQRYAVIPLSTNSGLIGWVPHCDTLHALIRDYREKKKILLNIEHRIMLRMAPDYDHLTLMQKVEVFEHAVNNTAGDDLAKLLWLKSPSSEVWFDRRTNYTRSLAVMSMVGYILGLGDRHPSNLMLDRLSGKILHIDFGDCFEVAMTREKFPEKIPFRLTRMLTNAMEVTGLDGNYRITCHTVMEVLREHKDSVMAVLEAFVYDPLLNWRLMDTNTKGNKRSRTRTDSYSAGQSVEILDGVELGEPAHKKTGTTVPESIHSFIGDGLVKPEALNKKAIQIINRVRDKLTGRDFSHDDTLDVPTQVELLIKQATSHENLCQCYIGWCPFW

IC50 [nM] | Structure (SMILES)
0.794 | C[C@H]1COCCN1c1cc(C2(S(=O)(=O)c3ccncc3)CC2)nc(-c2ccc(NC(=O)NCCO)cc2)n1 [Example 6f, 3-(2-hydroxyethyl)-1-[4-[4-[(3S)-3-methylmorpholin-4-yl]-6-(1-pyridin-4-ylsulfonylcyclopropyl)pyrimidin-2-yl]phenyl]urea]
93.2 | C[C@H]1COCCN1c1cc(C2(S(C)(=O)=O)CC2)nc(-c2ccc(NC(=O)NCc3cnn(C)c3)cc2)n1 [Example 2a, 1-[4-[4-[(3S)-3-methylmorpholin-4-yl]-6-(1-methylsulfonylcyclopropyl)pyrimidin-2-yl]phenyl]-3-[(1-methylpyrazol-4-yl)methyl]urea]
1.18 | Cc1cc(NC(=O)Nc2ccc(-c3nc(N4CCOC[C@@H]4C)cc(C4(S(C)(=O)=O)CC4)n3)cc2)no1 [Example 2u, 1-[4-[4-[(3S)-3-methylmorpholin-4-yl]-6-(1-methylsulfonylcyclopropyl)pyrimidin-2-yl]phenyl]-3-(5-methyl-1,2-oxazol-3-yl)urea]

Same assay, conditions: table of enzyme assay Test (a)(ii); read-out: Test (a)(ii) IC50

IC50 [nM] | Structure (SMILES)
15.1 | C[C@H]1COCCN1c1cc(C2(S(=O)(=O)c3ccccn3)CCCC2)nc(-c2ccc(NC(=O)NCCCO)cc2)n1 [Example 36ae, 3-(3-hydroxypropyl)-1-[4-[4-[(3S)-3-methylmorpholin-4-yl]-6-(1-pyridin-2-ylsulfonylcyclopentyl)pyrimidin-2-yl]phenyl]urea]
2620 | C[C@H]1COCCN1c1cc(C2(S(=O)(=O)CCCO)CC2)nc(-c2ccc(NC(=O)N(C)C3CC3)cc2)n1 [Example 36ck, 1-cyclopropyl-3-[4-[4-[1-(3-hydroxypropylsulfonyl)cyclopropyl]-6-[(3S)-3-methylmorpholin-4-yl]pyrimidin-2-yl]phenyl]-1-methylurea]
10.3 | CCS(=O)(=O)C1(c2cc(N3CCOC[C@@H]3C)nc(-c3ccc(NC(=O)N[C@@H](C)CO)cc3)n2)CCC1 [Example 87e, 1-[4-[4-(1-ethylsulfonylcyclobutyl)-6-[(3S)-3-methylmorpholin-4-yl]pyrimidin-2-yl]phenyl]-3-[(2S)-1-hydroxypropan-2-yl]urea]
12.2 | CCNC(=O)Nc1ccc(-c2nc(N3CCOC[C@@H]3C)cc(C3(S(=O)(=O)C4CCOCC4)CC3)n2)cc1 [Example 94b, 1-ethyl-3-[4-[4-[(3S)-3-methylmorpholin-4-yl]-6-[1-(oxan-4-ylsulfonyl)cyclopropyl]pyrimidin-2-yl]phenyl]urea]
40.1 | C[C@H]1COCCN1c1cc(C2(S(=O)(=O)C3CC3)CC2)nc(-c2ccc(NC(=O)NCCO)nc2)n1 [Example 14c, 1-[5-[4-(1-cyclopropylsulfonylcyclopropyl)-6-[(3S)-3-methylmorpholin-4-yl]pyrimidin-2-yl]pyridin-2-yl]-3-(2-hydroxyethyl)urea]

The next lines start with the compound.

Structure (SMILES) | IC50 [nM]
Cc1ccc(F)cc1S(=O)(=O)C1(c2cc(N3CCOC[C@@H]3C)nc(-c3ccc(NC(=O)NC4CC4)cc3)n2)CC1 [Example 61a, 3-cyclopropyl-1-[4-[4-[1-(5-fluoro-2-methylphenyl)sulfonylcyclopropyl]-6-[(3S)-3-methylmorphohn-4-yl]pyrimidin-2-yl]phenyl]urea] | 32.6
C[C@@H](CO)NC(=O)Nc1ccc(-c2nc(N3CCOC[C@@H]3C)cc(C3(S(=O)(=O)c4ccccc4)CC3)n2)cc1 [Example 36ec, 1-[4-[4-[1-(benzenesulfonyl)cyclopropyl]-6-[(3S)-3-methylmorpholin-4-yl]pyrimidin-2-yl]phenyl]-3-[(2S)-1-hydroxypropan-2-yl]urea] | 3.21
Cc1csc(S(=O)(=O)C2(c3cc(N4CCOC[C@@H]4C)nc(-c4ccc(NC(=O)NC(C)(C)CO)cc4)n3)CC2)n1 [Example 25k, 3-(1-hydroxy-2-methylpropan-2-yl)-1-[4-[4-[(3S)-3-methylmorpholin-4-yl]-6-[1-[(4-methyl-1,3-thiazol-2-yl)sulfonyl]cyclopropyl]pyrimidin-2-yl]phenyl]urea] | 2.92
CNC(=O)Nc1ccc(-c2nc(N3CCOC[C@@H]3C)cc(C3(S(=O)(=O)c4ccc(Cl)cc4)CCOCC3)n2)cc1 [Example 23j, 1-[4-[4-[4-(4-chlorophenyl)sulfonyloxan-4-yl]-6-[(3S)-3-methylmorpholin-4-yl]pyrimidin-2-yl]phenyl]-3-methylurea] | 31.4
C[C@H]1COCCN1c1cc(C2(S(=O)(=O)c3ccccc3)CC2)nc(-c2ccc(NC(=O)Nc3ncco3)cc2)n1 [Example 36dy, 1-[4-[4-[1-(benzenesulfonyl)cyclopropyl]-6-[(3S)-3-methylmorpholin-4-yl]pyrimidin-2-yl]phenyl]-3-(1,3-oxazol-2-yl)urea] | 6.36
Cc1nnc(S(=O)(=O)C2(c3cc(N4CCOC[C@@H]4C)nc(-c4ccc(NC(=O)NC5CC5)cc4)n3)CC2)s1 [Example 38, 3-Cyclopropyl-1-[4-[4-[(3S)-3-methylmorpholin-4-yl]-6-[1-[(5-methyl-1,3,4-thiadiazol-2-yl)sulfonyl]cyclopropyl]pyrimidin-2-yl]phenyl]urea] | 1.31
C[C@H]1COCCN1c1cc(C2(S(=O)(=O)c3ccc(Cl)cc3)CC2)nc(-c2ccc(NC(=O)Nc3ccccn3)cc2)n1 [Example 27b, 1-[4-[4-[1-(4-chlorophenyl)sulfonylcyclopropyl]-6-[(3S)-3-methylmorpholin-4-yl]pyrimidin-2-yl]phenyl]-3-pyridin-2-ylurea] | 4.25
CC(C)CNC(=O)Nc1ccc(-c2nc(N3CCOC[C@@H]3C)cc(C3(S(=O)(=O)C(C)(C)C)CC3)n2)cc1 [Example 18c, 1-[4-[4-(1-tert-butylsulfonylcyclopropyl)-6-[(3S)-3-methylmorpholin-4-yl]pyrimidin-2-yl]phenyl]-3-(2-methylpropyl)urea] | 32
CNC(=O)Nc1ccc(-c2nc(N3CCOC[C@@H]3C)cc(C3(S(=O)(=O)c4ccccc4F)CC3)n2)cc1 [Example 58, 1-[4-[4-[1-(2-Fluorophenyl)sulfonylcyclopropyl]-6-[(3S)-3-methylmorpholin-4-yl]pyrimidin-2-yl]phenyl]-3-methylurea] | 1.15
C[C@H]1COCCN1c1cc(C2(S(=O)(=O)c3ccc(C#N)cc3)CC2)nc(-c2ccc(NC(=O)NCCF)cc2)n1 [Example 77e, 1-[4-[4-[1-(4-cyanophenyl)sulfonylcyclopropyl]-6-[(3S)-3-methylmorpholin-4-yl]pyrimidin-2-yl]phenyl]-3-(2-fluoroethyl)urea] | 5.17
O=C(NCCO)Nc1ccc(-c2nc(N3CCOCC3)cc(C3(S(=O)(=O)c4ccccn4)CC3)n2)cc1 [Example 56c, 3-(2-hydroxyethyl)-1-[4-[4-morpholin-4-yl-6-(1-pyridin-2-ylsulfonylcyclopropyl)pyrimidin-2-yl]phenyl]urea] | 6.23
Cc1ccccc1S(=O)(=O)C1(c2cc(N3CCOC[C@@H]3C)nc(-c3ccc(NC(=O)NCCF)cc3)n2)CC1 [Example 54c, 3-(2-fluoroethyl)-1-[4-[4-[(3S)-3-methylmorpholin-4-yl]-6-[1-(2-methylphenyl)sulfonylcyclo-propyl]pyrimidin-2-yl]phenyl]urea] | 4.53
C[C@H]1COCCN1c1cc(C2(S(=O)(=O)CCCO)CC2)nc(-c2ccc(NC(=S)Nc3cnn(C)c3)cc2)n1 [Example 37j, 1-[4-[4-[1-(3-hydroxypropylsulfonyl)cyclopro-pyl]-6-[(3S)-3-methylmorpholin-4-yl]pyrimidin-2-yl]phenyl]-3-(1-methylpyrazol-4-yl)thiourea] | 30.9
